“Also recorded” adds a separate entry of the source.
Tests used:
NKT cells [1] = assay: Oral administration of β-galactosyl ceramide: serum cytokines and liver NKT cell markers; format: in vivo, mouse
Experimental: Doses of β-galactosyl ceramide ranging from 100-800 μg/mouse were administered orally. Cytokine levels of IFN-γ and IL-4 were determined by ELISA as previously described by Zeng et al. (2003), supra. from serum levels.

NZBxNZW mouse = assay: Murine model for systemic lupus erythematosus, proteinuria; format: in vivo; details: high dose (100 μg/mouse) injected twice weekly, at 38 weeks; PBS control approximately 30%
Experimental: In a murine model for systemic lupus erythematosus, the NZBxNZW mouse, animals were injected twice weekly with one of: PBS, 50 μg/mouse β-galactosyl ceramide, or 100 μg/mouse β-galactosyl ceramide. The animals were analyzed for proteinuria, which is an indication of the development of lupus. In the control group of 15 mice, at 38 weeks, approximately 30% of the mice were without proteinuria, while approximately 80% of the mice treated with the high dose of β-galactosyl ceramide were without proteinuria.

[2] = system: OVA-immunized BALB/c mice; assay: OVA/alum induced AHR, murine model of asthma; format: in vivo
Experimental: (§1) In murine model of asthma, β-GalCer was administered to OVA-immunized BALB/c mice, or mice with α-GalCer induced airway hyperresponsiveness (AHR).
(§2) Immunizations. BALB/c mice were primed in the footpads with OVA (100 μg/mouse) adsorbed to 200 μg of alum (Al[OH]3). Mice were challenged with 50 μg OVA in 50 μl NaCl 0.9% intranasally 7, 8, and 9 days later. One day after the last intranasal challenge with OVA, airway hyperreactivity was measured from conscious mice after inhalation of increasing concentrations of methacholine in a whole body plethysmograph Immunization with α-GalCer was performed as described.
Cytokine ELISA. ELISAS were performed as previously described Macaulay et al. (1998) J. Immunol. 160:1694-1700. The antibody pairs used were as follows, listed by capture/biotinylated detection: IL-4, BVD4-1D11/BVD6-24G2; IFN-γ, R4-6A2/XMG1.2. Recombinant cytokine were used as standards, with curves generated in 1:2 dilutions from […] to 39 pg/ml for IL-4, and 20-2, 156 ng/ml for IFN-γ.
Measurement of anti-OVA antibody isotypes. Mice were bled at the time of sacrifice and OVA-specific antibody was measured using a modified antigen-specific ELISA. For measurement of OVA specific IgG, plates were coated overnight with 5 μg/ml OVA. After washing and blocking, serial diluted sera were added to the plates. Following overnight incubation, the plates were developed using HRPO-conjugated goat anti-IgG subclass-specific antibodies (Southern Biotechnology Associates, Birmingham, Ala.). After additional washing, OPD substrate was added, the plates developed and the OD determined at 492 nm Anti-OVA IgG1 mAb 6C1 and anti-OVA IgG2a mAb 3A11 were used as standards for quantitation of each IgG subclass. Determination of OVA-specific IgE was performed by ELISA, using rat anti-mouse IgE mAb EM95 (5.0 μg/ml) to coat plates. After the samples were applied and incubated overnight, plates were washed and biotinylated OVA (10 μg/ml) was added. Two hours later, plates were washed and HRPO-conjugated streptavidin (Southern Biotechnology Associates) was added. Plates were developed with OPD substrate and the OD determined at 492 nm Sera from mice hyperimmunized with OVA in alum was quantitated for IgE and used as standard for the OVA-specific IgE ELISA.
(§3) Measurement of Airway Responsiveness. Airway responsiveness was assessed by methacholine-induced airflow obstruction from conscious mice placed in a whole body plethysmograph (model PLY 3211, Buxco Electronics Inc., Troy, N.Y.). Pulmonary airflow obstruction was measured by Penh using the following formula:
(§4) [formula] where Penh=enhanced pause (dimensionless), Te=expiratory time, RT=relaxation time, PEF=peak expiratory flow (mI/s), and PIF=peak inspiratory flow (mI/s) (Hamelmann et al. (1997) Am. J. Respir. Crit. Care Med. 156:766-75. Enhanced pause (Penh), minute volume, tidal volume, and breathing frequency were obtained from chamber, pressure, measured with a transducer (model TRD5100) connected to preamplifier modules (model MAX2270) and analyzed by system XA software (model SFT 1810). Measurements of methacholine responsiveness were obtained by exposing mice for 2 min to NaCI 0.9%
(§5) Collection of BAL Fluid and Lung Histology. Animals were injected i.p. with a lethal dose of phenobarbital (450 mg/kg). The trachea was cannulated, and the lung was then lavaged with 0.8 ml of PBS three times, and the fluid pooled. Cells in the lavage fluid were counted using a hemocytometer and BAL cell differentials were determined on slide preparations stained with Hansel Stain (Lide Laboratories, Florissant, Mo.). At least 200 cells were differentiated by light microscopy based on conventional morphologic criteria. In some animals, no BAL was performed but lungs were removed, washed with PBS, fixed in 10% formalin and stained with hematoxylin and eosin.
(a) AHR was measured on day 10. C12-β-GalCer was administered i.v. (100 μg) 1 day prior to OVA/alum sensitization and 6 hours prior to each i.n. challenge (100 μg). […]

NKT cells [3] = assay: Serum IgE and IgG2c before and 10 days after a single i.p. glycolipid injection; format: in vivo, C57BL/6 mice
Experimental: In a separate experiment, mean serum IgE levels of groups of three C57BL/6 mice were measured before or 10 days after a single i.p. injection of 0.1 μg α Galcer alone, 100 μg β Galcer alone, or 100 μg of β Galcer injected 1 hour before 0.1 μg α Galcer. […] The bars show means of triplicate determinations, and the brackets show standard deviations. […] We conclude that β Galcer blocks the increase in serum IgE levels induced by α Galcer. No significant change is seen with the control IgG2c expression.

[4] = system: mice with α-GalCer induced airway hyperresponsiveness (AHR); assay: α-GalCer induced airway hyperresponsiveness (AHR), methacholine whole body plethysmograph; format: in vivo, BALB/c mice
Experimental: as §1, §2, §3, §4, §5
A minimum of 4 mice per group were used.

NKT cells [5] = assay: Serum IFN-γ and IL-4 (ELISA) after i.p. glycolipid injection; NKT cell activation in vivo; design: species or system C57BL/6 mice; details: 6 hours
Experimental: The i.p. injection of a galactosyl ceramide (obtained from Brigham Young University, Provo, Utah) into C57BL/6 mice increases serum levels of IL-4 and IFN-γ by selectively activating NKT cells. Injection of C12 β galactosyl ceramide (Avanti Lipids, Inc.) i.p. antagonizes the ability of α galactosyl ceramide to raise the levels of IL-4, interferon-gamma, and IgE in the serum of these mice.
Male C57BL/6 mice of about 8 weeks of age were given either 100 μg of β galactosyl ceramide (β Galcer) i.p., 0.1 μg of α galactosyl ceramide (α Galcer) i.p., 100 μg β Galcer i.p. either 1 hour before or at the same time as 0.1 μg α Galcer i.p., or no treatment. β-Galcer was obtained from Avanti Lipids Inc. Glycolipids were in aqueous solutions with PBS. Cytokine levels were determined by ELISA as previously described by Zeng et al. (2003), supra.

[6] = C12-β-GalCer treated group versus OVA/alum positive control
[7] = C12-β-GalCer treated group, four days in culture with 62.5 μg/ml OVA
[8] = glycolipid alone i.p. (100 μg β Galcer or 0.1 μg α Galcer), untreated about 50 pg/ml

In the case of `CCCCCCCCCCCCC/C=C/[C@@H](O)[C@H](CO[C@@H]1O[C@H](CO)[C@H](O)[C@H](O)[C@H]1O)NC(=O)CCCCCCCCCCC` [β Galcer, C12 β galactosyl ceramide], the “staining for NKT cell markers in the liver” value (NKT cells [1]; oral administration, FIG. 5) is reported as “decreased staining for NKT cell markers in the liver”, the “serum IL-4 level” value (NKT cells [1]; oral, 100-800 μg/mouse) is reported as “A similar pattern was observed” and the “serum IFN-γ level” value (NKT cells [1]; oral, 100-800 μg/mouse, 24 hours after administration) is reported as “no increase in serum levels at any dose”. The mice without proteinuria (NZBxNZW mouse) was “approximately 80%”, the AHR ([2]; C12-β-GalCer 100 μg i.v. 1 day prior to OVA/alum sensitization and 6 hours prior to each i.n. challenge, AHR day 10) was “reduce AHR; also recorded: reduces OVA/alum induced AHR” and the “eosinophilic infiltration of the lungs (histology)” value [2, 6] was “reduced but present”. For the same compound, the “neutrophilia in the lungs (histology)” value [2, 6] was “possibly more neutrophilia”, the “serum OVA-specific IgE” value ([2]; C12-β-GalCer treated group, 100 μg i.v.) was “reduced” and the “IFN-γ produced by lymph node cells” value [2, 7] was “slightly more IFN-γ”. The “IL-4 produced by lymph node cells” value [2, 7] was “less IL-4”, the “synthesis of IgG2c (control)” value (NKT cells [3]; treatment with β-Galcer, FIG. 1D) was “not affected” and the AHR ([4]; 50 μg i.n. and i.v. 2 hours prior to 0.5 μg α-GalCer i.n., 24 hours AHR) was “greatly reduces 24 hours AHR”. For the same compound, the AHR ([4]; 100 μg C12-β-GalCer i.v. 2 hours prior to 1.5 μg α-GalCer i.n., AHR at 24 hours) was “greatly reduces AHR; also recorded: blocks α-GalCer induced AHR”, the “AHR induced by the agent itself” value ([4]; C12-β-GalCer administered i.n.) was “induces mild AHR” and the “AHR induced by the agent itself” value ([4]; C12-β-GalCer i.v. alone) was “does not induce any AHR”. For the same compound, the “peri-bronchiolar eosinophilic inflammation (histology)” value ([4]; C12-β-GalCer treatment) was “reduced peri-bronchiolar eosinophilic inflammation”, the “serum IFN-γ” value ([4]; following α-GalCer induced AHR) was “more serum IFN-γ” and the “lung inflammation (histology)” value ([4]; i.v. injection of C12-β-GalCer by itself) was “does not result in any lung inflammation”. For the same compound, the “serum IL-4 level” value (NKT cells [5]; 100 μg β Galcer alone i.p., untreated about 100 pg/ml) was “did not increase the level”, the “serum IL-4 level” value (NKT cells [5]; 100 μg β Galcer and 0.1 μg α Galcer given at the same time) was “about 250 pg/ml” and the “serum IFN-γ level” value (NKT cells [5]; 100 μg β Galcer i.p. 1 hour before 0.1 μg α Galcer i.p.) was “below 40 pg/ml”. The “serum IFN-γ level” value (NKT cells [5]; 100 μg β Galcer i.p. at the same time as 0.1 μg α Galcer i.p.) was “below 40 pg/ml”, the “increase of serum IL-4 induced by α Galcer” value (NKT cells [5]; 100 μg β Galcer one hour before 0.1 μg α Galcer) was “completely blocked” and the “serum IFN-γ level” value (NKT cells [5]; [8]) was “did not increase the level”.

In the case of `CCCCCCCCCCCCCCCCCCCCCCCCCC(=O)N[C@@H](CO[C@H]1O[C@H](CO)[C@H](O)[C@H](O)[C@H]1O)[C@H](O)[C@H](O)CCCCCCCCCCCCCC` [α Galcer, α galactosyl ceramide, reference compound], the “rise of serum IgE level” value (NKT cells [3]; 0.1 μg α Galcer alone i.p., 10 days after versus before) is reported as “about three fold”, the “serum IL-4 level” value (NKT cells [5]; 0.1 μg α Galcer alone i.p.) is reported as 1000 pg/mL and the “increase of serum IL-4 level” value (NKT cells [5]; 0.1 μg α Galcer alone i.p., versus untreated) is reported as “about 10 fold”. The “serum IFN-γ level” value (NKT cells [5]; [8]) was “increased the level more than two fold”.
